One series deals with Oncorhynchus mykiss. Conditions: acute; mortality.
In another series the test system is Daphnia magna. Conditions: chronic/long-term; duration: 21 days.
In a further series the test system is Mus musculus. The settings on record: chronic; duration: 18 months; histopathology: neoplastic.
A further series deals with Apis mellifera. Conditions: acute, mortality.
The next series relates to Colinus virginianus. The settings on record: reproduction developmental; duration: 22 weeks.
The next series relates to Tagia sp. The settings on record: chronic/long-term; duration: 56 days; other.
In another series the test system is Folsomia candida. The settings on record: chronic/long-term; duration: 28 days; reproduction.
For the next series, the system named is Pimephales promelas. The settings on record: chronic/long-term.
Another series deals with Bibionidae. The settings on record: chronic/long-term; duration: 28 days.
The test system of another series is Typhlodromus pyri. Put plainly: LR50; higher = less toxic. The settings on record: not reported; mortality.

Molecules are shown by their SMILES.

The values that follow come from EPA's ToxValDB 9.5 (doi:10.2903/j.efsa.2016.4554).

The term NOAEL denotes the highest tested level that showed no adverse finding. The LOAEL is the lowest dose or exposure tested at which an adverse effect was seen.

For the compound `C#CC(C)(C)NC(=O)c1cc(Cl)cc(Cl)c1` [Propyzamide], the LD50 with Oncorhynchus mykiss was over 4.7 mg/L; in the series with Apis mellifera (dermal) it was over 100 µg/piece; with Apis mellifera (oral, unspecified), over 100 µg/piece. The NOEC in the series on Daphnia magna worked out at 0.6 mg/L; with Tagia sp. it was 3.3 mg/kg; with Folsomia candida it was 1.4 mg/kg; with Pimephales promelas, 0.224 mg/L; in the series on Bibionidae, 0.34 mg/L. Moreover, the NOAEL was 5 mg/kg-day in the series with Mus musculus; 12.1 mg/kg-day with Rattus norvegicus (reproduction developmental, M, body weight); 4.5 mg/kg-day in the series on Rattus norvegicus (subchronic, duration: 90 days, oral, organ weight). In the series on Rattus norvegicus (acute, neurology), this compound gave an LOAEL of 40 mg/kg-day. In addition, the NOEL in the series on Colinus virginianus came out at 30.9 mg/kg-day. Besides, in the series on Typhlodromus pyri, the LR50 is 1890 g/ha.
In turn, `CC(=O)C(C)(C)NC(=O)c1cc(Cl)cc(Cl)c1` [Benzamide, 3,5-dichloro-N-(1,1-dimethyl-2-oxopropyl)-] displayed an NOEC in the series with Folsomia candida of 20 mg/kg.
